Values of other authors as cited in patent US10449245B2 (priority 2014, dated 2019).

Tested on: HIV-specific T cells
Conditions: IMiD present during stimulation with dendritic cells presenting Gag- or Nef-specific peptides; cited from earlier work

| Compound | function of T-cells after in vitro stimulation |
| --- | --- |
| Nc1cccc2c1C(=O)N(C1CCC(=O)NC1=O)C2=O (centres unmarked) [pomalidomide] | a number of improvements in the function of the T-cells |
| Nc1cccc2c1CN(C1CCC(=O)NC1=O)C2=O (centres unmarked) [Lenalidomide] | a number of improvements in the function of the T-cells |
